Counter-ions that a name gives are not always drawn. Some results are limits rather than exact numbers.

Sequence of full-length USP7 (Q93009 whole entry): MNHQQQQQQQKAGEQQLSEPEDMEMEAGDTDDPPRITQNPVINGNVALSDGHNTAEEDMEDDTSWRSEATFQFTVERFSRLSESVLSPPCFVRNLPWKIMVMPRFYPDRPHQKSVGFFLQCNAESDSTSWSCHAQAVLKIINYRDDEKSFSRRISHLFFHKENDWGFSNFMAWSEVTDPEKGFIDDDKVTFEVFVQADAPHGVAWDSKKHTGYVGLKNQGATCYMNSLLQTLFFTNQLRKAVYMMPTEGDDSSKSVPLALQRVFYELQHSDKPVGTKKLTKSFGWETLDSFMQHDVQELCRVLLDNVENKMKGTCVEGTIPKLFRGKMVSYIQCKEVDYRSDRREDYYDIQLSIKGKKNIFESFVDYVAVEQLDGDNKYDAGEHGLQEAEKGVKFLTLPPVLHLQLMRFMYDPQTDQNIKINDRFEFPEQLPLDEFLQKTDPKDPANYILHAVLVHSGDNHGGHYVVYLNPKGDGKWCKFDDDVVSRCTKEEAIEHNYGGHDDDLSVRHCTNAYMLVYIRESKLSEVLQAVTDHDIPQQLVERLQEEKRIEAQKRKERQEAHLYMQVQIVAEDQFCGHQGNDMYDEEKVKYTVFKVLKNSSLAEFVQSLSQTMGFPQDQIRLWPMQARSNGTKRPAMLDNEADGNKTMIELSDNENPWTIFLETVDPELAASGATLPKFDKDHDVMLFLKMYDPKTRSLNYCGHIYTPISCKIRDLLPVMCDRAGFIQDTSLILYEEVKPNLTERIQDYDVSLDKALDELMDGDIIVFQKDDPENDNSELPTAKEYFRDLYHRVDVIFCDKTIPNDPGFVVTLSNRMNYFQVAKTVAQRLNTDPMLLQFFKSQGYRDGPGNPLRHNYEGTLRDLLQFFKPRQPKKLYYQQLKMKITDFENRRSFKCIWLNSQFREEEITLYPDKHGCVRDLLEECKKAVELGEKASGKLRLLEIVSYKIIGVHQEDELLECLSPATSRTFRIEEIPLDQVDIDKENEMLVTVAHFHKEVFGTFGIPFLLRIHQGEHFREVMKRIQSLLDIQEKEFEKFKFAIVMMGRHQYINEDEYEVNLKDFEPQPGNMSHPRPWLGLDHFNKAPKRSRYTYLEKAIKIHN

For one assay, the target named is full-length USP7 (Homo sapiens (Human), UniProt Q93009). Briefly: Enzymatic assay to determine IC50 of USP7 inhibitors (Ubiquitin-Rhodamine 110 cleavage). It is filed as biochemical. Particulars: 0.5 nM USP7, 0.5 μM Ubiquitin-Rhodamine 110, 45 min at 37° C. The method, then:
For the inhibitors disclosed herein, their potency was measured using the following method.
A 45 μl reaction volume containing full-length USP7 (0.5 nM) in 50 mM HEPES pH 7.5, 150 mM NaCl, 1 mM DTT, 1 mg/ml BSA and 0.05% Tween20 was assembled in wells of 96 well half area black flat bottom plates. Test compounds were first dissolved to 25 mM stocks in DMSO and subsequently introduced to enzyme 15 min after USP7 incubation with DTT at room temperature. The enzymatic reaction was started by adding 0.5 μM Ubiquitin-Rhodamine 110 (final concentration) and allowed to proceed for 45 min at 37° C., 250 RPM shaking before Rhodamine fluorescence (485 nm excitation/520 nm emission) was measured using Tecan Spark M10 plate reader.
Usually IC50 stands for the point on the concentration scale where inhibition reaches its midpoint. Low values mean higher potency, high ones lower potency. As for `Cc1nc(C#N)cc(-c2ccnc3cc(CN4C(=O)C5C(C4=O)C5(C)C)sc23)c1NC1CCNC1` (stereo not shown) [Example 26, 4-(2-((6,6-dimethyl-2,4-dioxo-3-azabicyclo[3.1.0]hexan-3-yl)methyl)thieno[3,2-b]pyridin-7-yl)-6-methyl-5-(pyrrolidin-3-ylamino)picolinonitrile 2,2,2-trifluoroacetate], the IC50 is less than 500 nM. The same measure, in the same setting: the figure for `Cc1cc(C#N)nc(-c2ccnc3cc(CN4C(=O)C5C(C4=O)C5(C)C)sc23)c1C(=O)N1CCOCC1` (stereo not shown) [Example 58, 6-(2-((6,6-dimethyl-2,4-dioxo-3-azabicyclo[3.1.0]hexan-3-yl)methyl)thieno[3,2-b]pyridin-7-yl)-4-methyl-5-(morpholine-4-carbonyl)picolinonitrile hydrochloride] is 500 to 1000 nM. Still for that read-out and setting: the figure for `Cc1nc(C#N)cc(-c2ccnc3cc(CN4C(=O)C5C(C4=O)C5(C)C)sc23)c1C(=O)N1CC[C@H](O)C1` (stereo partly drawn) [Example 11, 4-(2-((6,6-dimethyl-2,4-dioxo-3-azabicyclo[3.1.0]hexan-3-yl)methyl)thieno[3,2-b]pyridin-7-yl)-5-((S)-3-hydroxypyrrolidine-1-carbonyl)-6-methylpicolinonitrile 2,2,2-trifluoroacetate] is less than 500 nM; for `Cc1cc(C(F)(F)F)nc(-c2ccnc3cc(CN4C(=O)C5C(C4=O)C5(C)C)sc23)c1C(=O)N1CCN(C)CC1` (stereo not shown) [Example 80, 6,6-dimethyl-3-((7-(4-methyl-3-(4-methylpiperazine-1-carbonyl)-6-(trifluoromethyl)pyridin-2-yl)thieno[3,2-b]pyridin-2-yl)methyl)-3-azabicyclo[3.1.0]hexane-2,4-dione dihydrochloride] it is less than 500 nM.

Compound `Cc1cc(C(F)(F)F)nc(-c2ccnc3cc(CN4C(=O)C5C(C4=O)C5(C)C)sc23)c1C(=O)N1CC[C@H](O)C1` (stereo partly drawn) [Example 113, 3-((7-(3-((S)-3-hydroxypyrrolidine-1-carbonyl)-4-methyl-6-(trifluoromethyl)pyridin-2-yl)thieno[3,2-b]pyridin-2-yl)methyl)-6,6-dimethyl-3-azabicyclo[3.1.0]hexane-2,4-dione hydrochloride] registered an IC50 of less than 500 nM. On the same count and under the same terms, the figure for `Cc1cc(Cl)cc(-c2ccnc3cc(CC4C(=O)NCC4O)sc23)c1O[C@H]1CCCNC1` (stereo partly drawn) [Example 179, 3-((7-(5-chloro-3-methyl-2-(((S)-piperidin-3-yl)oxy)phenyl)thieno[3,2-b]pyridin-2-yl)methyl)-4-hydroxypyrrolidin-2-one 2,2,2-trifluoroacetate] is less than 500 nM; for `Cc1nc(C#N)cc(-c2ccnc3cc(CN4C(=O)C5C(C4=O)C5(C)C)sc23)c1C(=O)N1CC(F)(F)C1` (stereo not shown) [Example 19, 5-(3,3-difluoroazetidine-1-carbonyl)-4-(2-((6,6-dimethyl-2,4-dioxo-3-azabicyclo[3.1.0]hexan-3-yl)methyl)thieno[3,2-b]pyridin-7-yl)-6-methylpicolinonitrile 2,2,2-trifluoroacetate] it is 500 to 1000 nM; for `Cc1cc(C#N)nc(-c2ccnc3cc(CN4C(=O)C5C(C4=O)C5(C)C)sc23)c1OC1CCCNC1` (stereo not shown) [Example 1, 6-(2-((6,6-dimethyl-2,4-dioxo-3-azabicyclo[3.1.0]hexan-3-yl)methyl)thieno[3,2-b]pyridin-7-yl)-4-methyl-5-(piperidin-3-yloxy)picolinonitrile 2,2,2-trifluoroacetate] it is less than 500 nM.

As to `Cc1cc(C(F)(F)F)nc(-c2ccnc3cc(CN4C(=O)C5C(C4=O)C5(C)C)sc23)c1C(=O)N1CCNC[C@@H]1C` (stereo partly drawn) [Example 78, 6,6-dimethyl-3-((7-(4-methyl-3-((S)-2-methylpiperazine-1-carbonyl)-6-(trifluoromethyl)pyridin-2-yl)thieno[3,2-b]pyridin-2-yl)methyl)-3-azabicyclo[3.1.0]hexane-2,4-dione dihydrochloride], the IC50 was less than 500 nM. Still for that read-out and setting: the figure for `Cc1cc(Cl)nc(-c2ccnc3cc(CN4C(=O)C5C(C4=O)C5(C)C)sc23)c1NC1CC(F)(F)C1` (stereo not shown) [Example 123, 3-((7-(6-chloro-3-((3,3-difluorocyclobutyl)amino)-4-methylpyridin-2-yl)thieno[3,2-b]pyridin-2-yl)methyl)-6,6-dimethyl-3-azabicyclo[3.1.0]hexane-2,4-dione 2,2,2-trifluoroacetate] is 500 to 1000 nM.

Compound `Cc1cc(C#N)nc(-c2ccnc3cc(CN4C(=O)C5C(C4=O)C5(C)C)sc23)c1C(=O)N1CCNC[C@H]1C` (stereo partly drawn) [Example 54, 6-(2-((6,6-dimethyl-2,4-dioxo-3-azabicyclo[3.1.0]hexan-3-yl)methyl)thieno[3,2-b]pyridin-7-yl)-4-methyl-5-((R)-2-methylpiperazine-1-carbonyl)picolinonitrile hydrochloride] had an IC50 of 500 to 1000 nM. Compound `Cc1cc(C#N)nc(-c2ccnc3cc(CN4C(=O)C5C(C4=O)C5(C)C)sc23)c1NC1CCNC1` (stereo not shown) [Example 20, 6-(2-((6,6-dimethyl-2,4-dioxo-3-azabicyclo[3.1.0]hexan-3-yl)methyl)thieno[3,2-b]pyridin-7-yl)-4-methyl-5-(pyrrolidin-3-ylamino)picolinonitrile dihydrochloride] registered an IC50 of less than 500 nM. Still for that read-out and setting: the figure for `Cc1cc(C(F)(F)F)nc(-c2ccnc3cc(CN4C(=O)C5C(C4=O)C5(C)C)sc23)c1C(=O)N1C[C@H]2CCN[C@H]2C1` (stereo partly drawn) [Example 108, 6,6-dimethyl-3-((7-(4-methyl-3-((3aR,6aR)-octahydropyrrolo[3,4-b]pyrrole-5-carbonyl)-6-(trifluoromethyl)pyridin-2-yl)thieno[3,2-b]pyridin-2-yl)methyl)-3-azabicyclo[3.1.0]hexane-2,4-dione dihydrochloride] is less than 500 nM; for “6-(2-((6,6-dimethyl-2,4-dioxo-3-azabicyclo[3.1.0]hexan-3-yl)methyl)thieno[3,2-b]pyridin-7-yl)-4-methyl-5-((S)-2-methylpiperazine-1-carbonyl)picolinonitrile hydrochloride [Example 47]” it is less than 500 nM.

`Cc1cc(Cl)nc(-c2ccnc3cc(CN4C(=O)C5C(C4=O)C5(C)C)sc23)c1NC1CCCNC1` (racemic) [Example 129, 3-((7-(6-chloro-4-methyl-3-(piperidin-3-ylamino)pyridin-2-yl)thieno[3,2-b]pyridin-2-yl)methyl)-6,6-dimethyl-3-azabicyclo[3.1.0]hexane-2,4-dione tetrahydrochloride]: the IC50 was less than 500 nM. On the same count and under the same terms, the figure for `Cc1nc(C#N)cc(-c2ccnc3cc(CN4C(=O)C5C(C4=O)C5(C)C)sc23)c1C(=O)N1CC[C@@H](O)C1` (stereo partly drawn) [Example 12, 4-(2-((6,6-dimethyl-2,4-dioxo-3-azabicyclo[3.1.0]hexan-3-yl)methyl)thieno[3,2-b]pyridin-7-yl)-5-((R)-3-hydroxypyrrolidine-1-carbonyl)-6-methylpicolinonitrile 2,2,2-trifluoroacetate] is 500 to 1000 nM; for `Cc1cc(Cl)nc(-c2ccnc3cc(CN4C(=O)C5C(C4=O)C5(C)C)sc23)c1NC1CNC1` (stereo not shown) [Example 122, 3-((7-(3-(azetidin-3-ylamino)-6-chloro-4-methylpyridin-2-yl)thieno[3,2-b]pyridin-2-yl)methyl)-6,6-dimethyl-3-azabicyclo[3.1.0]hexane-2,4-dione tetrahydrochloride] it is less than 500 nM.

Still in this assay, the particulars now being: at 1 μM of the test compound; given where IC50 not determined yet; read-out: percent value of inhibition of USP7 activity.
What is called inhibition is the share of the control response that was lost under treatment. For `CC1(C)C2C(=O)N(Cc3cc4nccc(-c5cc(C(F)(F)F)cnc5CC5NCCNC5=O)c4s3)C(=O)C21` (stereo not shown) [Example 166, 6,6-dimethyl-3-((7-(2-((3-oxopiperazin-2-yl)methyl)-5-(trifluoromethyl)pyridin-3-yl)thieno[3,2-b]pyridin-2-yl)methyl)-3-azabicyclo[3.1.0]hexane-2,4-dione hydrochloride], the inhibition at 1 µM is less than 20%. The same measure, in the same setting: the figure for `Cc1cc(C(F)(F)F)nc(-c2ccnc3cc(CN4C(=O)C5C(C4=O)C5(C)C)sc23)c1CN1CCCC1=O` (stereo not shown) [Example 39, 6,6-dimethyl-3-((7-(4-methyl-3-((2-oxopyrrolidin-1-yl)methyl)-6-(trifluoromethyl)pyridin-2-yl)thieno[3,2-b]pyridin-2-yl)methyl)-3-azabicyclo[3.1.0]hexane-2,4-dione dihydrochloride] is 20 to 49%. Same read-out and setting: the figure for `Cc1cc(C#N)nc(-c2ccnc3cc(CN4C(=O)C5C(C4=O)C5(C)C)sc23)c1C(=O)N(C)CCN(C)C` (stereo not shown) [Example 42, 6-cyano-2-(2-((6,6-dimethyl-2,4-dioxo-3-azabicyclo[3.1.0]hexan-3-yl)methyl)thieno[3,2-b]pyridin-7-yl)-N-(2-(dimethylamino)ethyl)-N,4-dimethylnicotinamide] is less than 20%; for `Cc1cc(C#N)nc(-c2ccnc3cc(CN4C(=O)C5C(C4=O)C5(C)C)sc23)c1C(=O)NC1CC(F)(F)C1` (stereo not shown) [Example 57, 6-cyano-N-(3,3-difluorocyclobutyl)-2-(2-((6,6-dimethyl-2,4-dioxo-3-azabicyclo[3.1.0]hexan-3-yl)methyl)thieno[3,2-b]pyridin-7-yl)-4-methylnicotinamide hydrochloride] it is less than 20%.

Still in this assay, the particulars now being: read-out: percent value of inhibition of USP7 activity.
For `CC1(C)C2C(=O)N(Cc3cc4nccc(-c5cc(C(F)(F)F)nn5CC5CNCCO5)c4s3)C(=O)C21` (stereo not shown) [Example 7, 6,6-dimethyl-3-((7-(1-(morpholin-2-ylmethyl)-3-(trifluoromethyl)-1H-pyrazol-5-yl)thieno[3,2-b]pyridin-2-yl)methyl)-3-azabicyclo[3.1.0]hexane-2,4-dione 2,2,2-trifluoroacetate], the inhibition at 1 µM is less than 20%.

(Values after patent US12404279B2, “Deubiquitinase inhibitors and methods of use thereof” (Molecure S.A., priority 2021, dated 2025).)
